Experiments:
human thrombus = assay: Screening of thrombus-binding activity of phages by ELISA; conditions: for dose-dependent thrombus-specific binding by ELISA: BSA binding as negative control, FIG. 1C/1D; for binding affinity to human thrombus (ELISA, absorption at 450 nm): screening of 72 phage clones from the fifth round of biopanning, FIG. 1B
Experimental: A human thrombus was isolated and collected from a cadaver about 20 years ago in a course of fresh cadaver dissection and partial thrombus was grounded to powder and then incubated with 2×10^11 phages in 1% BSA in PBS at 4° C. for 1 hour. After washing with PBS, the bound phages were eluted from the thrombus tissue and amplified using E. coli for subsequent rounds of selection. The eluted and amplified phages were titrated on lysogeny broth (LB) medium plates containing isopropyl β-D-1-thiogalactopyranoside (IPTG) and X-Gal (5-bromo-4-chloro-3-indolyl-D-galactoside). The biopanning steps described above were repeated five times before phage clones were randomly selected for thrombus ELISA screening.
The grinded human thrombus tissue or BSA in coating buffer was used to coat 96-well ELISA plates overnight. After blocking and washing, the selected phage clones were added and incubated for 1 hour at room temperature (RT). After washing with PBS, each well was probed with horseradish peroxidase (HRP)-conjugated mouse anti-M13 antibodies (1:2000 dilution) for 1 hour at RT. After repeating the wash step, the plates were developed with ELISA substrate solution. The reaction was terminated with 3N hydrochloric acid, and the absorbance of the colorimetric substrate was analyzed using a microplate reader at 450 nm.

induced thrombus = assay: In vivo infrared fluorescence imaging of HILYTE FLUOR 750-conjugated protein at the thrombus; design: species or system mice; conditions: FIG. 5B
Experimental: Fifty micrograms of tPA or targeting peptide-tPA fusion and 4 nM HILYTE FLUOR™ 750 were mixed for 45 minutes at RT to promote conjugation. The solution was dialyzed with a 3.5-kDa-cut-off membrane overnight at 4° C. Time-course fluorescence measurements were made in mice with thrombi after intravenous injection of HILYTE FLUOR™ 750-labeled tPA or targeting peptide-tPA fusion protein. Fluorescence images were captured using an imaging system. Accumulation of HILYTE FLUOR™ 750 in the thrombus was quantified by subtracting background florescence intensity.
Fifty micrograms of thrombus affinity peptide-tPA was mixed with 4 nM HILYTE FLUOR™ 750 and incubated for 45 minutes at RT in the dark to promote the conjugation. Dialysis was performed with a 3.5-kDa-cut-off membrane overnight at 4° C. to remove excess dye. A time-course of infrared fluorescence images were acquired after intravenous injection of HILYTE FLUOR™ 750-conjugated fusion protein or tPA. Infrared fluorescence images of HILYTE FLUOR™ 750-conjugated protein were captured in living using an imaging system. Accumulation of HILYTE FLUOR™ 750 fluorescence signal in the induced thrombus was quantified and analyzed by software.

| dose-dependent thrombus-specific binding by ELISA (human thrombus) | binding affinity to human thrombus (ELISA, absorption at 450 nm) (human thrombus) | Substance | time after injection at which accumulation at the induced thrombus was seen (induced thrombus; dye-conjugated protein, i.v., mice with induced thrombus) [min] | decrease of fluorescence intensity at the induced thrombus (induced thrombus; in 1 hour after i.v. injection) [%] |
| --- | --- | --- | --- | --- |
| best thrombus-specific binding | relatively high binding affinity | FQNEWFHNFLHD [PC30] | – | – |
| best thrombus-specific binding | relatively high binding affinity | LQKNPFDLVQIL [PC66] | – | – |
| best thrombus-specific binding | relatively high binding affinity | TEANLSSWVFAR [PC39] | – | – |
| – | – | tPA: human recombinant tissue plasminogen activator without thrombus binding peptide, used as control | ≤ 5 | 50 |

From patent publication US20200299329A1, “SYNTHETIC PEPTIDES, PHARMACEUTICAL COMPOSITIONS COMPRISING THE SAME, AND USES THEREOF IN TREATING THROMBOEMBOLISM-RELATED DISEASES” (Academia Sinica, priority 2019, published 2020)
